Test results taken from the Kinase Knowledgebase extract (Sharma et al. 2016).

These compounds were tested against CDK2 (UniProt P24941) (assay: Enzyme Assay).
In the case of CCc1cnn2c(Nc3ccc(C(N)=O)cc3)cc(N[C@H]3CC[C@@H](N)CC3)nc12, the IC50 is reported as 350 nM.
In the case of CC(C)c1cnn2c(Nc3ccc(S(=O)(=O)N(C)CCO)cc3)cc(NC3CCCC3)nc12, the IC50 is reported as 302 nM.
N[C@H]1CC[C@H](Nc2cc(Nc3ccc(S(=O)(=O)c4ccccc4)cc3)n3ncc(Cl)c3n2)CC1 was tested, and the IC50 was 15 nM.
Work on COc1cc(Nc2cc(N[C@H]3CC[C@H](N)CC3)nc3c(Br)cnn23)ccc1S(=O)(=O)N(C)C yielded an IC50 of 270 nM.
CC(C)c1cnn2c(NC3CCN(S(=O)(=O)C(C)C)CC3)cc(N[C@H]3CC[C@H](N)CC3)nc12 gave an IC50 of 11900 nM.
CC(C)c1cnn2c(Nc3ccc(S(C)(=O)=O)cc3)cc(OC3CCCCC3)nc12 showed an IC50 of 950 nM.
For CC(C)c1cnn2c(Nc3ccc(S(C)(=O)=O)cc3)cc(Cl)nc12, the IC50 was 220 nM.
CCNC(=O)N[C@H]1CC[C@H](Nc2cc(Nc3ccc(S(=O)(=O)N(C)C)cc3)n3ncc(C(C)C)c3n2)CC1 gave an IC50 of 305 nM.
CC(C)c1cnn2c(Nc3ccc(S(=O)(=O)N4CCCC4)cc3)cc(Cl)nc12 showed an IC50 of 270 nM.
For CC(C)c1cnn2c(Nc3ccc(S(=O)(=O)N(C)C)cc3)cc(Nc3ccncc3)nc12, the IC50 was 3090 nM.
Work on CSc1cc(Nc2cc(N[C@H]3CC[C@H](N)CC3)nc3ccnn23)ccc1S(=O)(=O)N(C)C yielded an IC50 greater than 50000 nM.
For N[C@H]1CC[C@H](Oc2cc(Nc3ccc(S(=O)(=O)c4ccccc4)cc3)n3ncc(Br)c3n2)CC1, the IC50 was 15 nM.
For N[C@H]1CC[C@H](Oc2cc(Nc3ccc(S(=O)(=O)c4ccccc4)cc3)n3ncc(Cl)c3n2)CC1, the IC50 was 45 nM.
CC(C)c1cnn2c(Nc3ccc(S(=O)(=O)N(C)CCO)cc3)cc(OCCN(C)C)nc12 gave an IC50 of 240 nM.
Compound CC(C)c1cnn2c(NCc3ccncc3)cc(-c3cccc(Br)c3)nc12 has an IC50 of 530 nM.
